Test results as given in ChEMBL document CHEMBL5137044, “Expansion of the S-CN-DABO scaffold to exploit the impact on inhibitory activities against the non-nucleoside HIV-1 reverse transcriptase” (Eur J Med Chem, 2022).

Assays:
[1] = Fold resistance, ratio of EC50 for antiviral activity against drug-resistant HIV-1 L100I mutant infected in human MT4 cells to EC50 for antiviral activity against […] HIV-1 infected in human MT4 cells; format: functional
[2] = system: Human immunodeficiency virus 1; assay: Antiviral activity against drug-resistant HIV-1 Y188L mutant infected in human MT4 cells assessed as reduction in virus-induced cytopathic effect incubated for 5 days by MTT assay; format: functional, organism-based; conditions: Human immunodeficiency virus 1, Y188L mutant, MT4, 120 h
[3] = system: Human immunodeficiency virus 1; assay: Antiviral activity against drug-resistant HIV-1 Y181C mutant infected in human MT4 cells assessed as reduction in virus-induced cytopathic effect incubated for 5 days by MTT assay; format: functional, organism-based; conditions: Human immunodeficiency virus 1, Y181C mutant, MT4, 120 h
[4] = system: Human immunodeficiency virus 1; assay: Antiviral activity against […] HIV-1 infected in human MT4 cells assessed as reduction in virus-induced cytopathic effect incubated for 5 days by MTT assay; format: functional, organism-based; conditions: Human immunodeficiency virus 1, MT4, 120 h
[5] = Fold resistance, ratio of EC50 for antiviral activity against drug-resistant HIV-1 Y188L mutant infected in human MT4 cells to EC50 for antiviral activity against […] HIV-1 infected in human MT4 cells; format: functional
[6] = Fold resistance, ratio of EC50 for antiviral activity against drug-resistant HIV-1 E138K mutant infected in human MT4 cells to EC50 for antiviral activity against […] HIV-1 infected in human MT4 cells; format: functional
[7] = system: Human immunodeficiency virus 1; assay: Antiviral activity against drug-resistant HIV-1 L100I mutant infected in human MT4 cells assessed as reduction in virus-induced cytopathic effect incubated for 5 days by MTT assay; format: functional, organism-based; conditions: Human immunodeficiency virus 1, L100I mutant, MT4, 120 h
[8] = target: Human immunodeficiency virus type 1 reverse transcriptase (Human immunodeficiency virus 1, UniProt Q72547); assay: Inhibition of recombinant wild-type p66/p51 HIV-1 reverse transcriptase incubated for 40 mins by picogreen dye-based spectrofluorometric analysis
[9] = system: Human immunodeficiency virus 1; assay: Antiviral activity against drug-resistant HIV-1 E138K mutant infected in human MT4 cells assessed as reduction in virus-induced cytopathic effect incubated for 5 days by MTT assay; format: functional, organism-based; conditions: Human immunodeficiency virus 1, E138K mutant, MT4, 120 h
[10] = Cytotoxicity against human MT4 cells assessed as cell growth inhibition incubated for 5 days by MTT assay; format: toxicity, cell-based; conditions: time 5 day
[11] = Fold resistance, ratio of EC50 for antiviral activity against drug-resistant HIV-1 K103 N mutant infected in human MT4 cells to EC50 for antiviral activity against […] HIV-1 infected in human MT4 cells; format: functional
[12] = Fold resistance, ratio of EC50 for antiviral activity against drug-resistant HIV-1 Y181C mutant infected in human MT4 cells to EC50 for antiviral activity against […] HIV-1 infected in human MT4 cells; format: functional
[13] = system: Human immunodeficiency virus 1; assay: Antiviral activity against drug-resistant HIV-1 K103 N mutant infected in human MT4 cells assessed as reduction in virus-induced cytopathic effect incubated for 5 days by MTT assay; format: functional, organism-based; conditions: Human immunodeficiency virus 1, K103 N mutant, MT4, 120 h
[14] = Selectivity index, ratio of CC50 for human MT4 cells to EC50 for antiviral activity against NNRTI resistant HIV-1 infected in human MT4 cells; format: toxicity, cell-based; conditions: read-out: Ratio CC50/EC50
Cytochrome P450 2D6 = Cytochrome P450 2D6 (Homo sapiens, UniProt P10635); assay: Inhibition of CYP2D6 in human liver microsomes incubated for 15 to 40 mins in presence of NADPH; format: ADME, Microsome
Cytochrome P450 2D6, sequence (P10635 whole entry): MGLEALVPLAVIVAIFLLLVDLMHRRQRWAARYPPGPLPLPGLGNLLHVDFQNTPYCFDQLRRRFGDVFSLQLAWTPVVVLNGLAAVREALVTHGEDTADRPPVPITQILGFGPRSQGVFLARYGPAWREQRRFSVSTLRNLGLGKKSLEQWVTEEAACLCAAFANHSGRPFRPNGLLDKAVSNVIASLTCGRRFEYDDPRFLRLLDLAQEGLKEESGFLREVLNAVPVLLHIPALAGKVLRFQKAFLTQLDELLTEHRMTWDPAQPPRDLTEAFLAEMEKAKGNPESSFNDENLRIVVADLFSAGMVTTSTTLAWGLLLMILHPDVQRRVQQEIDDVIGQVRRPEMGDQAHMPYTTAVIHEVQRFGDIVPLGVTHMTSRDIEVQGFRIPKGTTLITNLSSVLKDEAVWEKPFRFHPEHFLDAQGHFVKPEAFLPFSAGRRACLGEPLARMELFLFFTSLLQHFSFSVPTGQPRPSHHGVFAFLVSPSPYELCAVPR

Row | Structure (SMILES) | Ratio EC50 [1] | EC50 [2] | EC50 [3] | EC50 [4] | Ratio EC50 [5] | Ratio EC50 [6] | EC50 [7] | IC50 [8] | EC50 [9] | CC50 at 120 h [10] | Ratio EC50 [11] | Ratio EC50 [12] | EC50 [13] | selectivity ratio [14] | IC50 (Cytochrome P450 2D6)
1 | Cc1ccccc1C(C#N)c1nc(SC(C)C)[nH]c(=O)c1C (stereo unspecified) | 28 | 63.4 µM | 5.52 µM | 116 nM | 546 | 2 | 3.23 µM | 680 nM | 260 nM | 111 µM | 416 | 48 | 48.2 µM | 960 | 
2 | Cc1c(C(C#N)c2cccc(F)c2)nc(SC(C)C)[nH]c1=O (stereo unspecified) | 50 | > 202 µM | 6.89 µM | 268 nM | >753 | 4 | 13.5 µM | 829 nM | 960 nM | 202 µM | 245 | 26 | 65.6 µM | 754 | 
3 | Cc1cc(C)cc(C(C#N)c2nc(SC(C)C)[nH]c(=O)c2C)c1 (stereo unspecified) | 29 | 55.5 µM | 4.11 µM | 79 nM | 702 | 6 | 2.29 µM | 226 nM | 450 nM | 220 µM | 115 | 52 | 9.05 µM | 2770 | 
4 | Cc1c(C(C#N)c2cccnc2Cl)nc(SC(C)C)[nH]c1=O (stereo unspecified) | 21 | > 251 µM | > 60.9 µM | 1140 nM | >221 | 1 | 23.8 µM | 13100 nM | 1560 nM | 251 µM | 47 | >53 | 53.6 µM | 221 | 
5 | Cc1c(C(C#N)c2cccnc2)nc(SC(C)C)[nH]c1=O (stereo unspecified) | 2 | > 363 µM | > 363 µM | 26200 nM | >14 | 2 | 47.9 µM | 318000 nM | 54100 nM | 363 µM | >14 | >14 | > 363 µM | 14 | 
6 | COc1ccc2c(c1)[C@]13CCCC[C@@H]1[C@H](C2)N(C)CC3 [DEXTROMETHORPHAN] |  |  |  |  |  |  |  |  |  |  |  |  |  |  | 40.8 nM
